{
  "source": "paper PMC9611471",
  "about": "(Pharmaceutics, 2022)",
  "key": {"[1]": {"experiment": "In vitro metabolic stability, mouse liver microsomes", "assay_type": "in vitro ADME", "conditions": "pooled liver microsomes, NADPH, 37 °C, 0 and 30 min"}, "[2]": {"conditions": "previous studies; cited from earlier work"}, "[3]": {"experiment": "In vitro metabolic stability, dog liver microsomes", "assay_type": "in vitro ADME", "conditions": "pooled liver microsomes, NADPH, 37 °C, 0 and 30 min"}, "[4]": {"experiment": "In vitro metabolic stability, rat liver microsomes", "assay_type": "in vitro ADME", "conditions": "pooled liver microsomes, NADPH, 37 °C, 0 and 30 min"}, "A549 cells [5]": {"tested_on": "A549 cells", "experiment": "SK1 and SK2 protein (Western blotting) and mRNA (qRT-PCR) levels", "assay_type": "cell-based, human", "conditions": "5 and 10 μM, 24 h", "protocol": "(§1) Western blotting measured changes in apoptosis-related proteins (PARP, BAX, BCL-2, Caspase-3). A549 cells (1 × 10^6 cells per well in 6-well plates) were incubated for 24 h. Cells were treated with concentrations of the compounds and incubated for 24 h. Then, cells were dissolved on ice for two hours with a lysis buffer containing a mixture of protease and phosphatase inhibitors. The lysate was centrifuged at 12,000× g for 15 min at 4 °C, and the supernatant was collected. Protein concentrations were measured using a bicinchoninic acid protein assay kit. Total protein was separated by 8–10% sodium dodecyl sulfate–polyacrylamide gel electrophoresis (SDS-PAGE) and transferred onto polyvinylidene fluoride (PVDF) membranes. After being blocked with 5% skim milk, membranes were probed overnight at 4 °C with primary antibodies against SK1, SK2, PARP, BAX, Bcl-2, Caspase-3, and β-actin. Then, the membranes were incubated with subsequent secondary antibodies at room temperature. Then, the protein expressions were measured by Amersham Imager 680 (GE Healthcare, Leiden, WZ, The Netherlands).\nRNAs were isolated using the Trizol/chloroform reagent (Invitrogen, Waltham, MA, USA). […] For quantitative analysis of various genes, qRT-PCR was performed using the Bio-Rad CFX384 Touch Real-time PCR detection system (Bio-Rad, Hercules, CA, USA) with SYBR Premix Ex Taq (Takara Bio, Shiga, Japan) for 40 cycles."}, "A549 cells [6]": {"tested_on": "A549 cells", "experiment": "Mitochondrial membrane potential measurement (JC-10)", "assay_type": "cell-based, human", "conditions": "10 μM, 24 h", "protocol": "To access the mechanism of cell death, Mitochondrial Membrane Potential (MMP) was performed using JC-10 cationic dye. […] Cells were collected, and 20 μM JC-10 dye prepared in HBSS solution (0.14 M NaCl, 0.005 M KCl, 0.001 M CaCl2, 0.005 M MgSO4-7H2O, 0.0004 M MgSO4-6H2O, 0.0003 M Na2HPO4-2H2O, 0.0004 M KH2PO4, 0.006 M D-glucose, 0.004 M NaHCO3, 0.002 M HEPES, and 0.02% Pluronic® F-127) was added to the cell for 30 min and mixed. The samples were protected from light and measured by using the MACS Quant Analyzer 10 Flow cytometer."}, "SK1 [7]": {"target": "T1, SK1 (Homo sapiens, UniProt Q9NYA1)", "T1 sequence (Q9NYA1 whole entry)": "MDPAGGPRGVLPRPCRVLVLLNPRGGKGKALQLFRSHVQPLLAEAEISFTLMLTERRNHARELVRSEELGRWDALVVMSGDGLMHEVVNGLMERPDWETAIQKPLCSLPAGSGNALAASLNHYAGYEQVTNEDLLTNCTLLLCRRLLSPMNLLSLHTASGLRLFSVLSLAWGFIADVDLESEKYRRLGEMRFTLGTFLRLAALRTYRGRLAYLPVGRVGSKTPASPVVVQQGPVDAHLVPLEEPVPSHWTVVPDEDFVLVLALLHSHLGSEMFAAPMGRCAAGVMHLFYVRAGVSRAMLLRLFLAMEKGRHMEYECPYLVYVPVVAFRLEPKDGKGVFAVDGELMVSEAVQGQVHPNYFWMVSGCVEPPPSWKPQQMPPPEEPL", "experiment": "SK1 activity assay (Adapta screening system)"}, "A549 cells [8]": {"tested_on": "A549 cells", "experiment": "Cytotoxicity after SK1/SK2 siRNA transfection", "assay_type": "cell-based, human", "conditions": "A549 cells transfected with siSK1, siSK2; 24 h", "protocol": "Control small interfering RNA (siControl) was obtained from Bioneer (Daejeon, Korea), while SK1 (sc-44114) and SK2 (sc-39225) siRNA (siSK1 and siSK2) were purchased from Santa Cruz Biotechnology (Dallas, TX, USA). Cells were transfected using Lipofectamine RNAiMAX Reagent (Invitrogen, Carlsbad, CA, USA) according to the manufacturer’s instructions. Transfection efficiency was monitored by Western blot. After 24 h of infection, cytotoxicity was measured using infected cells."}, "A549 cells [9]": {"tested_on": "A549 cells", "experiment": "Annexin V-FITC apoptosis analysis", "assay_type": "cell-based, human", "conditions": "24 h", "protocol": "A549 cells (1 × 10^5 cells) were seeded in into a 12-well plate. […] After harvesting the cells, the binding buffer was added and then incubated with annexin-V-FITC and PI at room temperature for 15 min. The stained cells were analyzed with MACS Quant Analyzer 10 Flow Cytometer (Miltenyi Biotec, Bergisch Gladbach, Germany) within 1 h."}, "A549 cells [10]": {"tested_on": "A549 cells", "experiment": "Colony formation assay", "assay_type": "cell-based, human", "conditions": "5 and 10 μM", "protocol": "A549 cells (1 × 10^3 cells/well) were seeded into six-well plates and then each compound was treated at 5 and 10 μM for 12 h. The medium was changed every two days, and the cells were cultured in a fresh medium for 10 days. The obtained colonies were fixed with 25% glutaraldehyde for 20 min and then stained with 0.1% crystal violet for 15 min."}, "SK2": {"target": "T2, SK2 (Homo sapiens, UniProt Q9NRA0)", "T2 sequence (Q9NRA0 1-654)": "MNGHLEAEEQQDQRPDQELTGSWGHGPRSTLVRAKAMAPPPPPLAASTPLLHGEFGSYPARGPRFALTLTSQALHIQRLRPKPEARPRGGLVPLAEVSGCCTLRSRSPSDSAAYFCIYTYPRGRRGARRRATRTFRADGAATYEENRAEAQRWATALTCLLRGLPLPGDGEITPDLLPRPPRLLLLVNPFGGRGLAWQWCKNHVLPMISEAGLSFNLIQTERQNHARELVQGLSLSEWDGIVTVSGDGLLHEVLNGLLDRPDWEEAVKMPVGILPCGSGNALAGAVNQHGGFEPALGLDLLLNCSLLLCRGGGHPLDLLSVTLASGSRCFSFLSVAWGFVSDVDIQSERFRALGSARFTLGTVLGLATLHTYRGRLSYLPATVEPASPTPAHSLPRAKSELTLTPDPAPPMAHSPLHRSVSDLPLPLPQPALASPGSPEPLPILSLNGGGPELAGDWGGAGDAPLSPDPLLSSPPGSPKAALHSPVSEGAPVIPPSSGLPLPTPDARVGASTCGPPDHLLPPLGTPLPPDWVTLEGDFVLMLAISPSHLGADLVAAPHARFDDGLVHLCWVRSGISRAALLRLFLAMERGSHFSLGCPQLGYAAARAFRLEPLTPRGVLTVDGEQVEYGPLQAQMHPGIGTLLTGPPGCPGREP", "experiment": "SK2 activity assay (Adapta screening system)", "conditions": "read-out: SK2 inhibitory efficacy"}, "A549 and H1299 cells": {"tested_on": "A549 and H1299 cells", "experiment": "Cell proliferation / viability assay (EZ-CYTOX)"}, "A549 cells [11]": {"tested_on": "A549 cells", "experiment": "Western blotting of apoptosis-related proteins", "assay_type": "cell-based, human", "conditions": "5 and 10 μM, 24 h", "protocol": "as §1"}, "[12]": {"experiment": "In vitro metabolic stability, human liver microsomes", "conditions": "pooled liver microsomes 0.5 mg/mL, NADPH, 37 °C, 0 and 30 min"}, "A549 cells [13]": {"tested_on": "A549 cells", "experiment": "Levels of sphingosine, ceramide and S1P (ELISA)", "assay_type": "cell-based, human", "conditions": "5 and 10 μM", "protocol": "After seeding 1 × 10^6 cells/well into a 6-well plate and incubating for 24 h, the synthetic compounds were treated by concentration. Then, cells were collected and freezing and thawing were repeated three to five times, and centrifuged supernatant was used for testing. The levels of sphingosine, ceramide, and S1P were measured according to the proposed manual using each ELISA kit (Mybiosource, Inc., San Diego, CA, USA)."}, "SK1 [14]": {"target": "T1, SK1", "design": "purchased Thermo Fisher Scientific; method as in PMID 32526899", "conditions": "read-out: SK1 inhibitory effect (IC50); cited from earlier work"}, "SK1 [15]": {"target": "T1, SK1", "design": "purchased Thermo Fisher Scientific; method as in PMID 32526899", "conditions": "cited from earlier work"}},
  "data": [
    {"smiles": "Cc1cc(CS(=O)(=O)c2ccccc2)cc(OCc2ccc(CN3CCC[C@@H]3CO)cc2)c1", "note": "[PF-543, reference compound]", "values": [
      {"measurement": "MS MLM", "setting": "[1]", "result": 9.4},
      {"measurement": "metabolic stability (MS)", "setting": "[2]", "result": "poor"},
      {"measurement": "MS DLM", "setting": "[3]", "result": 7.3},
      {"measurement": "MS RLM", "setting": "[4]", "result": 7.8}
    ]},
    {"smiles": "Cc1cc(CN(Cc2cc(C)cc(CS(=O)(=O)c3ccccc3)c2)c2ccc(CCN3CCC(O)CC3)cc2)cc(CS(=O)(=O)c2ccccc2)c1", "note": "[Compound 2, 1-(4-(Bis(3-methyl-5-((phenylsulfonyl)methyl)benzyl)amino)phenethyl)piperidin-4-ol]", "values": [
      {"measurement": "expression of proteins and mRNAs of SK1 and SK2", "setting": "A549 cells [5]", "result": "did not affect"},
      {"measurement": "MS MLM", "setting": "[1]", "result": 24.6},
      {"measurement": "change in mitochondrial membrane potential (MMP), JC-10", "setting": "A549 cells [6]", "result": "significantly increased compared to that after treatment with PF-543"},
      {"measurement": "selectivity for SK1", "setting": "SK1 [7]; SK1 vs SK2, compared to PF-543", "result": "lower selectivity for SK1 compared to PF-543"},
      {"measurement": "inhibition at 10 µM", "setting": "SK1 [7]; read-out: SK1 inhibitory efficacy", "result": 39, "unit": "%"},
      {"measurement": "dependence of cytotoxic efficacy on SK1/SK2 (siRNA knockdown)", "setting": "A549 cells [8]", "result": "more dependent on SK1, although SK2 is also partially involved"},
      {"measurement": "apoptotic effect (annexin-V)", "setting": "A549 cells [9]; 5 μM", "result": "significant effect"},
      {"measurement": "apoptotic effect (annexin-V)", "setting": "A549 cells [9]; 10 μM", "result": "significantly higher apoptotic effect compared to PF-543"},
      {"measurement": "colony formation", "setting": "A549 cells [10]", "result": "reduce colony formation in a concentration-dependent manner"},
      {"measurement": "MS DLM", "setting": "[3]", "result": 18.6},
      {"measurement": "MS RLM", "setting": "[4]", "result": 29.1},
      {"measurement": "inhibition at 10 µM", "setting": "SK2", "result": 44, "unit": "%"},
      {"measurement": "cytotoxic effects compared with FTY720", "setting": "A549 and H1299 cells; 20 and 40 μM, A549 and H1299 cells", "result": "cytotoxic effects similar to those of FTY720"},
      {"measurement": "IC50", "setting": "A549 and H1299 cells; Homo sapiens, 24 h, read-out: IC50 (cytotoxic effect)", "result": 7.07, "unit": "µM"},
      {"measurement": "levels of PARP, Caspase-3 and cleaved PARP", "setting": "A549 cells [11]", "result": "levels of PARP and Caspase-3 were decreased and cleavage of PARP was increased"},
      {"measurement": "MS HLM", "setting": "[12]", "result": 18.1},
      {"measurement": "S1P levels", "setting": "A549 cells [13]", "result": "reduced"},
      {"measurement": "ceramide levels", "setting": "A549 cells [13]", "result": "increased"},
      {"measurement": "sphingosine levels", "setting": "A549 cells [13]", "result": "sphingosine expression at a level similar to that of PF-543"}
    ]},
    {"smiles": "Cc1cc(CN(Cc2cc(C)cc(CS(=O)(=O)c3ccccc3)c2)c2ccc(CCO)cc2)cc(CS(=O)(=O)c2ccccc2)c1", "note": "[Compound 7]", "values": [
      {"measurement": "IC50", "setting": "SK1 [14]", "result": 0.14, "unit": "µM"},
      {"measurement": "binding affinity for SK1 (Ka)", "setting": "SK1 [15]", "result": "3.9e+07", "unit": "M⁻¹"}
    ]}
  ]
}
